Values quoted from earlier work, collected in US20250129429A1, “GENE FUSIONS IN SARCOMA” (Foundation Medicine, Inc., priority 2021, published 2025).

Assays:
TrkB = TrkB (Homo sapiens, UniProt Q16620)
NGF dimer = NGF dimer (Homo sapiens, UniProt P01138); details: binds the NGF dimer
[1] = tested on: NTRK1 fusion-positive tumors; details: patients with NTRK1 fusion-positive tumors
[2] = tested on: various solid tumors with NTRK fusions; details: monotherapy; adult and pediatric patients, with and without CNS metastases
[3] = tested on: NTRK fusion-positive AML cell lines
TrkA = TrkA (Homo sapiens, UniProt P04629)
[4] = tested on: various solid tumors harboring NTRK fusions

TrkA, sequence (P04629 33-796): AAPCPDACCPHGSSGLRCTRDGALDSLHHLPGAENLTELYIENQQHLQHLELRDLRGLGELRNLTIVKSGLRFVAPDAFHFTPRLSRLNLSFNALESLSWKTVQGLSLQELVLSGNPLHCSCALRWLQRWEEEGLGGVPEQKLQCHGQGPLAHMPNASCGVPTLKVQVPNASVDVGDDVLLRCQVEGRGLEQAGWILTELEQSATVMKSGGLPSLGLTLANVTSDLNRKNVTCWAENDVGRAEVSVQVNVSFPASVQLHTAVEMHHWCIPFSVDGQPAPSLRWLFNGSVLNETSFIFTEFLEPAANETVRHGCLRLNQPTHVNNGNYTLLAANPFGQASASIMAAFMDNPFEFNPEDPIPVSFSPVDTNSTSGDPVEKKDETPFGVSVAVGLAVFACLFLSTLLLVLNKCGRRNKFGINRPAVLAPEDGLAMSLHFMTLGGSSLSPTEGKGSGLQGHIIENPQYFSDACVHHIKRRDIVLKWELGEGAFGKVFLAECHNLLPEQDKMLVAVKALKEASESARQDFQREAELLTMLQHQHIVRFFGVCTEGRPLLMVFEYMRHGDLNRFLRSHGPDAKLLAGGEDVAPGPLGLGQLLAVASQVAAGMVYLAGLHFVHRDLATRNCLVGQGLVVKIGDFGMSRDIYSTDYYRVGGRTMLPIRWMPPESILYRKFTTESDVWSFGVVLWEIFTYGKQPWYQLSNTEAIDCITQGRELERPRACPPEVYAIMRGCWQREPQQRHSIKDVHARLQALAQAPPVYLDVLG
TrkB, sequence (Q16620 32-822, species assumed): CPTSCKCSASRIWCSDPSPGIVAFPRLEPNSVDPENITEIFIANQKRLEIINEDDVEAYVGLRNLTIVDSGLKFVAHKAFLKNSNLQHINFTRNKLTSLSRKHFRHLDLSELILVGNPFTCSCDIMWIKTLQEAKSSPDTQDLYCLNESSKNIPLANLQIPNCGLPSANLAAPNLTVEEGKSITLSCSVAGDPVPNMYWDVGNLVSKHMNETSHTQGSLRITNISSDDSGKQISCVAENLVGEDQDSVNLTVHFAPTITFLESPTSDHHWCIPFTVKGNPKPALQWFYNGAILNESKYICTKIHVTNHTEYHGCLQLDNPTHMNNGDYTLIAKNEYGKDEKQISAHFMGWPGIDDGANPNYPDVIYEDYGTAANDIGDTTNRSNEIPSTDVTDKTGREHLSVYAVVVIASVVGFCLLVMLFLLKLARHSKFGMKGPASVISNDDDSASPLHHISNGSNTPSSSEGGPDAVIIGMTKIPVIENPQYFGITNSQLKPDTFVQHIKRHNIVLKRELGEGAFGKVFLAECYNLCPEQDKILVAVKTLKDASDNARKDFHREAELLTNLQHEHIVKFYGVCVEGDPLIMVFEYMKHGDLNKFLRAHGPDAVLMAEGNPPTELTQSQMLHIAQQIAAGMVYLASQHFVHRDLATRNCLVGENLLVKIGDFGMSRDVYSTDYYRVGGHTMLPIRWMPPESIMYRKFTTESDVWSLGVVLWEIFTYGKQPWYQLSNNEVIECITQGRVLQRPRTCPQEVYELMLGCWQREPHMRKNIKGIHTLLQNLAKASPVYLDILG
NGF dimer, sequence (P01138 122-241): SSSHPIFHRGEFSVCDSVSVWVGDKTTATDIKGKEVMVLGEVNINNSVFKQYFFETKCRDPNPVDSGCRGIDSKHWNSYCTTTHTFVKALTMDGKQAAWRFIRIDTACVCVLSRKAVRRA

CC(C)Oc1cc(Nc2nc(N[C@@H](C)c3ccc(F)cn3)ncc2Cl)n[nH]1 [AZ-23, 5-chloro-N-[(1S)-1-(5-fluoropyridin-2-yl)ethyl]-N′-(5-propan-2-yloxy-1H-pyrazol-3-yl)pyrimidine-2,4-diamine]
IC50 (TrkB): 8 nM

Cc1cc2nc3c(=O)[nH]c(=O)nc-3n(C)c2cc1C=O [Ro 08-2750]
Kd (NGF dimer): ~1000 nM

C[C@@H](Oc1cc(-c2cnn(C3CCNCC3)c2)cnc1N)c1c(Cl)ccc(F)c1Cl [crizotinib]
clinical responses [1]: Durable clinical responses

CN1CCN(c2ccc(C(=O)Nc3n[nH]c4ccc(Cc5cc(F)cc(F)c5)cc34)c(NC3CCOCC3)c2)CC1 [entrectinib, N-[5-(3,5-Difluorobenzyl)-1H-indazol-3-yl]-4-(4-methyl-1-piperazinyl)-2-(tetrahydro-2H-pyran-4-ylamino)benzamide]
clinical benefit [2]: Clinical benefit with entrectinib monotherapy has been achieved | preclinical sensitivity [3]: preclinical sensitivity has been observed

NC(=O)Nc1snc(S[C@@H]2CCCCc3ccccc32)c1C(N)=O [isothiazole 5n]
IC50 (TrkA): < 1 nM

O=C(Nc1cnn2ccc(N3CCC[C@@H]3c3cc(F)ccc3F)nc12)N1CC[C@H](O)C1 [larotrectinib]
CR ([4]; adult and pediatric patients with solid tumors harboring NTRK fusions): 17 % of patients | ORR ([4]; adult and pediatric patients with various solid tumors harboring NTRK fusions (88/109)): 81% | responses ongoing ([4]; at 12 months of treatment): 75-81 % of patients | intracranial efficacy ([4]; individuals with NTRK fusion-positive gliomas or brain metastases): has been demonstrated

c1ccc2c(c1)[nH]c1c3cccnc3ccc21 [pyridocarbazole]
IC50 (TrkA): 6 nM
